Bounds are passed on as bounds.

In data set [1] the test system is intracellular amastigotes of T. cruzi. The experiment in a line: Activity against intracellular amastigotes in infected Vero cells (Dm28c-Luc, 72 h). Format: cell-based, Trypanosoma cruzi. To be noted: Trypanosoma cruzi, Vero, negative log of the IC50 value in molar; read-out: Intracellular Amastigotes pIC50 (converted). The text has this: T. cruzi Dm28c clone genetically modified to express luciferase, kindly provided by Dr. Cristina Henriques from Oswaldo Cruz Institute–Fiocruz, was used in the drug assays. Trypomastigotes were harvested from T. cruzi-infected Vero cultures supernatants at 4th days post-infection (dpi) and used in the phenotypic screening assay. For intracellular amastigotes assays, Vero cells (2D and 3D cultures) were infected at a ratio of 10:1 parasites/host cells.
The effect of the pyrazole derivatives against intracellular amastigotes was also evaluated after 72 h treatment (37 °C) with compound concentrations ranging from 0.04–100 µM [13]. Parasite viability, measured by luminescent signal, was determined after luciferin (300 µg/mL) addition. IC50 and IC90 values were calculated by linear regression. Selectivity index (SI) was calculated as the ratio of the CC50 to IC50 values. The non-toxic concentration of DMSO (less than 1% v/v) was used in all assays. A minimum of three independent assays was carried out in duplicate.

In the case of `NC(=O)c1cnn(-c2ccccc2)c1` [Compound 1a, 1-phenyl-1H-pyrazole-4-carboxamide], the melting point lay within 224 to 225 °C. In addition, the IC50 in data set [1] was > 50.1 µM.

Compound `NC(=O)c1cnn(-c2cccc(Cl)c2)c1` [Compound 1b, 1-(3-chlorophenyl)-1H-pyrazole-4-carboxamide] showed a melting point of 202 to 204 °C. Also, in data set [1], the IC50 is > 50.1 µM.

On to `NC(=O)c1cnn(-c2ccc(Cl)cc2Cl)c1` [Compound 1c, 1-(2,4-dichlorophenyl)-1H-pyrazole-4-carboxamide], for which the melting point was in the range of 184 to 186 °C. The IC50 in data set [1] is > 50.1 µM.

As for `NC(=O)c1cnn(-c2cc(Cl)cc(Cl)c2)c1` [Compound 1d, 1-(3,5-dichlorophenyl)-1H-pyrazole-4-carboxamide], the melting point is 240 to 242 °C. The IC50 in data set [1] is > 50.1 µM.

For the compound `NC(=O)c1cnn(-c2ccc(Cl)c(Cl)c2)c1` [Compound 1e, 1-(3,4-dichlorophenyl)-1H-pyrazole-4-carboxamide], the melting point lay in the range of 190 to 192 °C. For the same compound, the IC50 in data set [1] is > 50.1 µM.

`NC(=O)c1cnn(-c2ccc(Cl)cc2)c1` [Compound 1f, 1-(4-chlorophenyl)-1H-pyrazole-4-carboxamide] displayed a melting point of 234 to 236 °C. Also, in data set [1], the IC50 was > 50.1 µM.

For `NC(=O)c1cnn(-c2ccc(F)cc2)c1` [Compound 1g, 1-(4-fluorophenyl)-1H-pyrazole-4-carboxamide], the melting point fell in the range of 244 to 246 °C. Also, the IC50 in data set [1] is > 50.1 µM.

For the compound `NC(=O)c1cnn(-c2cccc(F)c2)c1` [Compound 1h, 1-(3-fluorophenyl)-1H-pyrazole-4-carboxamide], the melting point lay in the range of 206 to 208 °C. For the same compound, in data set [1], the IC50 was > 50.1 µM.

`NC(=O)c1cnn(-c2ccc(Br)cc2)c1` [Compound 1i, 1-(4-bromophenyl)-1H-pyrazole-4-carboxamide] came in with a melting point of 242 to 244 °C. For the same compound, the IC50 in data set [1] was > 50.1 µM.

Take `NC(=O)c1cnn(-c2cccc(Br)c2)c1` [Compound 1j, 1-(3-bromophenyl)-1H-pyrazole-4-carboxamide]: the melting point was in the range of 212 to 214 °C. In addition, the IC50 in data set [1] is > 50.1 µM.

`COc1ccc(-n2cc(C(N)=O)cn2)cc1` [Compound 1k, 1-(4-methoxyphenyl)-1H-pyrazole-4-carboxamide] returned a melting point of 220 to 222 °C. Further, the IC50 in data set [1] was > 50.1 µM.

`NC(=O)c1cnn(-c2cccc(Cl)c2Cl)c1` [Compound 1l, 1-(2,3-dichlorophenyl)-1H-pyrazole-4-carboxamide] yielded a melting point of 220 to 224 °C. In addition, in data set [1], the IC50 is > 50.1 µM.

`NC(=O)c1cnn(-c2cccc(Cl)c2)c1N` [Compound 2b, 5-amino-1-(3-chlorophenyl)-1H-pyrazole-4-carboxamide] displayed a melting point of 168 to 170 °C. Besides, the IC50 in data set [1] is > 70.8 µM.

With `NC(=O)c1cnn(-c2ccc(Cl)cc2Cl)c1N` [Compound 2c, 5-amino-1-(2,4-dichlorophenyl)-1H-pyrazole-4-carboxamide], the melting point fell in the range of 212 to 214 °C. The IC50 in data set [1] was > 70.8 µM.

For the compound `NC(=O)c1cnn(-c2cc(Cl)cc(Cl)c2)c1N` [Compound 2d, 5-amino-1-(3,5-dichlorophenyl)-1H-pyrazole-4-carboxamide], the melting point lay in the range of 184 to 186 °C. Also, the IC50 in data set [1] is > 70.8 µM.

As for `NC(=O)c1cnn(-c2ccc(Cl)c(Cl)c2)c1N` [Compound 2e, 5-amino-1-(3,4-dichlorophenyl)-1H-pyrazole-4-carboxamide], the melting point lay within 204 to 212 °C. Besides, the IC50 in data set [1] was > 70.8 µM.

Take `NC(=O)c1cnn(-c2ccc(Cl)cc2)c1N` [Compound 2f, 5-amino-1-(4-chlorophenyl)-1H-pyrazole-4-carboxamide]: the melting point was in the range of 196 to 200 °C. In addition, in data set [1], the IC50 is > 70.8 µM.
